± gives the expanded uncertainty stated by the source.
Tests used:
[1] = for viscosity: 101.33 kPa, Liquid
[2] = molar heat capacity at constant pressure; details: 101.33 kPa, Liquid, Large sample (1 g) DSC

| Compound | viscosity ([1]; 283 K) [mPa·s] | viscosity ([1]; 298 K) [mPa·s] | viscosity ([1]; 303 K) [mPa·s] | viscosity ([1]; 313 K) [mPa·s] | viscosity ([1]; 323 K) [mPa·s] | viscosity ([1]; 333 K) [mPa·s] | viscosity ([1]; 343 K) [mPa·s] | molar heat capacity at constant pressure ([2]; 298 K) [J/K/mol] | molar heat capacity at constant pressure ([2]; 323 K) [J/K/mol] | Glass transition temperature [1] [°C] | viscosity ([1]; 293 K) [mPa·s] | Triple point temperature ([1]; Crystal) [K] | Triple point temperature ([1]; Metastable crystal) [K] |
| --- | --- | --- | --- | --- | --- | --- | --- | --- | --- | --- | --- | --- | --- |
| CCCCCCCCCCCCCC[N+](C)(CCOCCOCCOCCOCCOCCO)CCOCCOCCOCCOCCOCCO.COS(=O)(=O)[O-] | 10240 ± 4400 | 2790 ± 910 | 1910 ± 560 | 964 ± 230 | 511 ± 98 | 300 ± 44 | 187 ± 21 | 1066 ± 110 | 1098 ± 110 |  |  |  |  |
| CCCCCCCCn1cc[n+](C)c1.O=S(=O)([N-]S(=O)(=O)C(F)(F)F)C(F)(F)F |  |  |  |  |  |  |  | 654 ± 66 | 677 ± 68 | -84 ± 4 |  |  |  |
| CCCCCC[n+]1cc(C)cc(C)c1.O=S(=O)([N-]S(=O)(=O)C(F)(F)F)C(F)(F)F | 251 ± 20 | 104 ± 6 | 81 ± 4 | 52 ± 3 | 35 ± 2 | 24 ± 1 | 18 ± 1 | 620 ± 63 | 665 ± 67 | -76 ± 4 | 136 ± 10 | 283 ± 3 |  |
| CCCCCC[n+]1cccc(C)c1.O=S(=O)([N-]S(=O)(=O)C(F)(F)F)C(F)(F)F | 197 ± 14 | 85 ± 5 | 67 ± 4 | 44 ± 2 | 30 ± 2 | 22 ± 1 | 16 ± 1 | 624 ± 63 | 644 ± 65 | -82 ± 4 | 110 ± 7 |  |  |
| CCCCCC[n+]1ccn(C)c1.O=S(=O)([N-]S(=O)(=O)C(F)(F)F)C(F)(F)F | 148 ± 10 | 68 ± 4 | 55 ± 3 | 37 ± 2 | 26 ± 1 | 19 ± 1 | 15 ± 1 | 583 ± 59 | 604 ± 61 | -84 ± 4 | 86 ± 5 |  | 266 ± 3 |
| CCCCCCn1cc[n+](C)c1C.O=S(=O)([N-]S(=O)(=O)C(F)(F)F)C(F)(F)F | 317 ± 27 | 131 ± 9 | 101 ± 6 | 63 ± 3 | 42 ± 2 | 30 ± 2 | 22 ± 1 | 686 ± 69 | 705 ± 71 | -74 ± 4 | 171 ± 13 | 268 ± 3 |  |
| CCCC[n+]1cccc(C)c1.O=S(=O)([N-]S(=O)(=O)C(F)(F)F)C(F)(F)F | 138 ± 8 | 63 ± 3 | 51 ± 2 | 34 ± 2 | 24 ± 1 | 18 ± 1 | 14 ± 1 | 622 ± 63 | 641 ± 65 | -84 ± 4 | 80 ± 4 |  |  |
| CCn1cc[n+](C)c1.O=S(=O)([N-]S(=O)(=O)C(F)(F)F)C(F)(F)F | 52 ± 3 | 32 ± 2 | 26 ± 1 | 19 ± 1 | 15 ± 1 | 12 ± 1 | 9 ± 1 |  |  |  | 36 ± 2 |  |  |
| CCCC[n+]1cc(C)cc(C)c1.[Br-] [1-butyl-3,5-dimethylpyridinium bromide] |  |  |  |  |  |  |  |  |  | -24 ± 4 |  | 368 ± 3 |  |
| CCCCn1cc[n+](C)c1.COCCOCCOS(=O)(=O)[O-] [1-butyl-3-methylimidazolium 2-(2-methoxyethoxy)ethyl sulfate] | 4070 ± 730 | 1033 ± 140 | 731 ± 82 | 392 ± 36 | 228 ± 17 | 146 ± 9 | 98 ± 5 | 643 ± 65 | 652 ± 66 | -62 ± 4 | 1676 ± 260 |  |  |
| CC(=O)[O-].CCCCn1cc[n+](C)c1 [1-butyl-3-methylimidazolium acetate] | 1630 ± 240 | 440 ± 44 | 309 ± 27 | 165 ± 12 | 97 ± 6 | 62 ± 3 | 42 ± 2 |  |  |  | 646 ± 80 |  |  |
| CCCCn1cc[n+](C)c1.O=C([O-])C(F)(F)F [1-butyl-3-methylimidazolium trifluoroacetate] | 155 ± 10 | 70 ± 4 | 53 ± 3 | 37 ± 2 | 26 ± 1 | 19 ± 1 | 15 ± 1 |  |  |  | 89 ± 5 |  |  |
| CCCC[n+]1cccc(C)c1.[Br-] [1-butyl-3-methylpyridinium bromide] |  |  |  |  |  |  |  |  |  | -36 ± 4 |  |  |  |
| CCCC[n+]1cccc(C)c1.F[B-](F)(F)F [1-butyl-3-methylpyridinium tetrafluoroborate] | 517 ± 53 | 177 ± 13 | 132 ± 8 | 78 ± 4 | 48 ± 3 | 33 ± 2 | 23 ± 1 | 405 ± 41 | 421 ± 43 | -76 ± 4 | 246 ± 22 |  |  |
| CCCC[n+]1ccc(N(C)C)cc1.[Br-] [1-butyl-4-(dimethylamino)pyridinium bromide] |  |  |  |  |  |  |  |  |  |  |  | 495 ± 3 |  |
| CCCC[n+]1ccccc1.[Br-] [1-butylpyridinium bromide] |  |  |  |  |  |  |  |  |  |  |  | 378 ± 3 |  |
| CCOS(=O)(=O)[O-].CC[n+]1cccc(C)c1 [1-ethyl-3-methylpyridinium ethylsulfate] | 414 ± 39 | 150 ± 10 | 114 ± 7 | 70 ± 4 | 45 ± 2 | 32 ± 2 | 23 ± 1 | 389 ± 39 | 402 ± 41 | -71 ± 3 | 204 ± 17 |  |  |
| CCOS(=O)(=O)[O-].CC[n+]1ccccc1 [1-ethylpyridinium ethyl sulfate] | 356 ± 32 | 137 ± 9 | 105 ± 6 | 66 ± 4 | 43 ± 2 | 31 ± 2 | 23 ± 1 |  |  |  | 183 ± 14 |  |  |
| CCCCCCn1cc[n+](C)c1.F[B-](F)(F)F [1-hexyl-3-methylimidazolium tetrafluoroborate] |  |  |  |  |  |  |  | 416 ± 42 | 433 ± 44 | -79 ± 4 |  |  |  |
| CCCCCC[n+]1cccc(C)c1.[Br-] [1-hexyl-3-methylpyridinium bromide] |  |  |  |  |  |  |  | 343 ± 35 | 358 ± 36 | -37 ± 4 |  |  |  |
| CCCCCC[n+]1ccc(N2CCC(C)CC2)cc1.[Br-] [1-hexyl-4-(4-methyl-1-piperidinyl)pyridinium bromide] |  |  |  |  |  |  |  |  |  | 33 ± 4 |  |  |  |
| CCCCCC[n+]1ccccc1.O=S(=O)([N-]S(=O)(=O)C(F)(F)F)C(F)(F)F [1-hexylpyridinium bis(trifluromethylsulfonyl)imide] | 189 ± 14 | 80 ± 5 | 64 ± 3 | 42 ± 2 | 29 ± 2 | 21 ± 1 | 16 ± 1 | 612 ± 62 | 632 ± 64 | -77 ± 4 | 106 ± 7 | 273 ± 3 |  |
| CCCCCCCCn1cc[n+](C)c1.[Br-] [1-methyl-3-octylimidazolium bromide] |  |  |  |  |  |  |  | 392 ± 40 | 408 ± 41 |  |  |  |  |
| CCCCCCCC[n+]1ccn(C)c1.F[B-](F)(F)F [1-methyl-3-octylimidazolium tetrafluoroborate] |  |  |  |  |  |  |  | 506 ± 51 | 526 ± 53 | -81 ± 4 |  |  |  |
| CCCCCC[n+]1ccc(N(C)C)c(C)c1.[Br-] [4-(dimethylamino)-1-hexyl-3-methylpyridinium bromide] |  |  |  |  |  |  |  |  |  | -2 ± 4 |  | 392 ± 3 |  |
| CCCCCC[n+]1ccc(N(C)C)cc1.[Br-] [4-(dimethylamino)-1-hexylpyridinium bromide] |  |  |  |  |  |  |  |  |  |  |  | 469 ± 3 |  |

— the NIST ThermoML archive (doi:10.1016/j.jct.2005.03.013)
